Structures can show the parent of a compound that is named as a salt. Where two headings read alike, the source gives them in different places.
Assays:
[1] = biological target: T1, α1b (hamster receptor expressed in mouse fibroblasts) (Mesocricetus auratus, UniProt P18841); assay: Radioligand binding with [3H]-prazosin, α1b
T1 construct: expressed in transfected cells; host or cells: mouse fibroblasts
T1 sequence (P18841 1-515): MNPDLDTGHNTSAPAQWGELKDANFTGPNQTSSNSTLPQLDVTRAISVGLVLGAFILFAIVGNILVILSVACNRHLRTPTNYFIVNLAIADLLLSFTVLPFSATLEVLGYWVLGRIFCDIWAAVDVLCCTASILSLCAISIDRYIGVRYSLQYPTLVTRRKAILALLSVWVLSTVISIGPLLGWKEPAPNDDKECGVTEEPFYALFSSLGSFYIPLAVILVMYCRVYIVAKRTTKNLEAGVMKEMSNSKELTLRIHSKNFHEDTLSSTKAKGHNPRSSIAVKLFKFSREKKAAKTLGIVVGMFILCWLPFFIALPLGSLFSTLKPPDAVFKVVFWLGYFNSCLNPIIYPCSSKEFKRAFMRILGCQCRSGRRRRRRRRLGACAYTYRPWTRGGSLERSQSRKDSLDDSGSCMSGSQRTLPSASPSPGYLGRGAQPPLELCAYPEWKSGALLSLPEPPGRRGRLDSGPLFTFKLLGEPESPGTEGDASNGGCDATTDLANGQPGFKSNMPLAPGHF
In short: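 Radioligand binding with [3H]-prazosin: α1A from rat submaxillary gland; α1b hamster receptor and α1d rat receptor, each expressed in mouse fibroblasts.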

Anesthetized Dogs = assay: Intraurethral pressure (IUP) in anesthetized dogs; assay type: in vivo, dog; conditions: Canis lupus familiaris; iv dose causing a maximum increase in IUP of 5 mm Hg, anesthetized female dogs; read-out: Mean IUP ED5
[2] = hamster receptor expressed in mouse fibroblasts, [3H]-prazosin, read-out: Radioligand Binding Ki α1b (Hamster)

CCS(=O)(=O)Nc1cccc2c1CCCC2c1c[nH]cn1.O=C(O)/C=C\C(=O)O (single isomer, unassigned; (+)) [Example 33, (+)-N-[5-(1H-imidazol-4-yl)-5,6,7,8-tetrahydro-1-naphthalenyl]ethanesulfonamide, maleate]
Ki [1, 2]: 1.3 µM

CCS(=O)(=O)Nc1cccc2c1CCCC2c1c[nH]cn1.O=C(O)/C=C\C(=O)O (centres unmarked) [Example 12, N-[5-(1H-imidazol-4-yl)-5,6,7,8-tetrahydro-1-naphthalenyl]ethanesulfonamide, maleate]
Ki [1, 2]: 6.98 µM

CS(=O)(=O)Nc1cccc(Cc2c[nH]cn2)c1.O=C(O)/C=C\C(=O)O [Example 21, N-[3-(1H-imidazol-4-ylmethyl)phenyl]methanesulfonamide, maleate]
melting point: 142 to 144 °C | ED (5 mmHg IUP increase) (Anesthetized Dogs): 0.0227 µmol/kg | Ki [1]: 1.27 µM

COc1ccc(NS(C)(=O)=O)c2c1C(c1c[nH]cn1)CCC2 (centres unmarked) [Example 26, N-[5,6,7,8-tetrahydro-(1H-imidazol-4-yl)-4-methoxyy-1-naphthalenyl]methanesulfonamide, maleate]
ED (5 mmHg IUP increase) (Anesthetized Dogs): 0.653 µmol/kg

Cc1c(Cc2c[nH]cn2)cccc1NS(C)(=O)=O.O=C(O)/C=C\C(=O)O [Example 28, N-[3-(1H-imidazol-4-ylmethyl)-2-methylphenyl]methanesulfonamide, maleate]
ED (5 mmHg IUP increase) (Anesthetized Dogs): 0.0771 µmol/kg

CCS(=O)(=O)Nc1cccc(Cc2c[nH]cn2)c1C.O=C(O)/C=C\C(=O)O [Example 29, N-[3-(1H-imidazol-4-ylmethyl)-2-methylphenyl]ethanesulfonamide, maleate]
ED (5 mmHg IUP increase) (Anesthetized Dogs): 0.0411 µmol/kg | Ki [1]: 3.88 µM

CC(c1cccc(NS(C)(=O)=O)c1)c1c[nH]cn1.O=C(O)/C=C\C(=O)O (centres unmarked) [Example 31, N-[3-[1-(1H-imidazol-4-yl)ethyl]phenyl]methanesulfonamide, maleate]
ED (5 mmHg IUP increase) (Anesthetized Dogs): 0.0916 µmol/kg

C=C(c1cccc(NS(=O)(=O)CC)c1)c1c[nH]cn1 [Example 45, N-{3-[1-(1H-imidazol-4-yl)vinyl]phenyly}ethanesulfonamide, maleate]
Ki [1]: 1.73 µM

Source: patent US6503935B1, “Imidazoles and related compounds as α1A agonists” (Abbott Laboratories, priority 1998, dated 2003)
